Holding throughout (type): cell-based
Series [1] has as its system B16 melanoma. The experiment in a line: Melanin production rate measurement (Experimental Example 1, 6 well plate, medium + cell melanin). As to conditions: for melanin production suppressive effect / whitening effect when combined as component (B): combined with (A) N-Ac-CP2Et; for melanin production suppressive effect / whitening effect when combined as component (B) / melanin production suppressing effect / whitening effect when combined as component (B): summary of Table 1, highest grade stated; for activity at 20000 µM: 20 mM; for activity at 22500 µM: 22.5 mM; for melanin production suppressing effect / whitening effect when combined as component (B): combined with (A) N-Ac-CP. The method, then: B16 melanoma was cultured in DMEM (Dulbecco's Modified Eagle Medium) (high glucose, containing 10% serum). After confluence, the cells were seeded on a 6 well plate. The next day, each well medium was exchanged with DMEM (300 μM tyrosine added) added with each evaluation sample at a given evaluation concentration (Table 1), and the cells were cultured for 3 days. […] The medium was recovered, and centrifuged at 10000 rpm for 10 min. The absorbance of the supernatant at 450 nm was measured by spectrophotometer. The medium was recovered, and the cells were rinsed once with PBS (phosphate-buffered saline). A blending solution of 4% aqueous sodium hydroxide solution and dimethyl sulfoxide (9:1) was added to the well, and the mixture was stood at room temperature for 10 min. The cells were dissolved and recovered, and centrifuged at 3500 rpm for 10 min. The absorbance (450 nm) of the supernatant was measured by spectrophotometer. The total of the melanin amount in the medium and in the cell was calculated from the analytical curve drawn using synthetic melanin. By setting the calculated value 3 days after addition of each sample at a given concentration as a relative percentage to the calculated value of the control (no sample addition) defined as 100%, the melanin production rate of each sample to the melanin amount in the control as 100% was calculated. When a sample was dissolved dimethyl sulfoxide and then added, a sample containing 0.1% dimethyl sulfoxide was used as a control (no sample addition). The melanin production rate was standardized from the amount of cell protein obtained in Experimental Example 2.
(§1) The spectrophotometer used in this melanin production suppression test was DU800, manufactured by BECKMAN COULTER.
The melanin production rate of each sample was measured for a single use and combined use, and the effect of the combined use was evaluated by the following criteria using the theoretical value.
The theoretical value was melanin production rate (%) by single use of component (A)×melanin production rate (%) by single use of component (B)/100.

Series [2] relates to B16 melanoma. Description: Cell viability rate measurement (Experimental Example 2, cell protein amount). To be noted: for cell viability rate (single): single use, 3 days; for safety when combined as component (B): summary of Table 1, highest grade stated. The method, then:
B16 melanoma was cultured in DMEM (Dulbecco's Modified Eagle Medium) (high glucose, containing 10% serum). After confluence, the cells were seeded on a 6 well plate. The next day, each well medium was exchanged with DMEM (300 μM tyrosine added) added with each evaluation sample at a given evaluation concentration (Table 1), and the cells were cultured for 3 days. The medium was recovered, and the cells were rinsed once with PBS (phosphate-buffered saline). A blending solution of 4% aqueous sodium hydroxide solution and dimethyl sulfoxide (9:1) was added to the well, and the mixture was stood at room temperature for 10 min. The cells were dissolved and recovered, and centrifuged at 3500 rpm for 10 min, and the supernatant was diluted 3-fold with milli-Q water. Solution A (DC Protein Assay; BIO RAD, 100 μl) was added to the diluted solution (20 μl) and the mixture was admixed in a vortex. Solution B (DC Protein Assay; BIO RAD, 800 μl) was added and mixed therewith, and the mixture was stood at room temperature for 15 min. After standing, the absorbance (750 nm) was measured by a spectrophotometer. In addition, the analytical curve of albumin was determined, the protein amount of the above-mentioned solution was calculated, and the relative rate was taken as a viability rate.
as §1
The cell viability rate of each sample was measured for a single use and combined use, and the effect of the combined use was evaluated by the following criteria using the degree of toxic mitigation.
The degree of toxic mitigation was cell viability rate (%) by combined use of component (A) and component (B)−cell viability rate (%) by single use of component (B).

The test system of series [3] is B16 melanoma. Description: Melanin production rate measurement (Experimental Example 3, 96 well plate, 5-25 mM). To be noted: for IC50: Mus musculus, B16, 72 h, 3 days, samples 5-25 mM, read-out: concentration suppressing melanin production by 50%. As for the experimental part:
The cysteine derivatives of Synthetic Example 1 and Synthetic Example 3 were measured for a melanin production rate for comparison of a whitening effect. B16 melanoma was cultured in DMEM (Dulbecco's Modified Eagle Medium) (containing high glucose, serum 10%). After confluence, it was seeded in a 96 well plate. The next day, each well medium was exchanged with DMEM added with each evaluation sample adjusted to 5-25 mM, and the cells were cultured for 3 days. The absorbance at 450 nm was measured by a microplatereader. By setting the measurement value 3 days after addition of each sample at a given concentration as a relative percentage to the measurement value of the control (no sample addition) defined as 100%, the melanin production rate of each sample to the melanin amount in the control as 100% was calculated.
The calculated concentrations of the cysteine derivatives of Synthetic Example 1 and Synthetic Example 3 necessary for suppressing the melanin production rate by 50% are shown in Table 2.
The microplatereader used in this melanin production suppressing test was MULTISKAN FC manufactured by Thermo Fisher Scientific Inc.

Setting [4] is: Mus musculus, B16, 72 h, single use, 3 days, control = 100%.

Several values for one entry are separate records, joined by “and”; a condition that tells them apart may be missing. Identical values can stand only once.

As for `CCCCCCc1ccc(O)cc1O` [rcinol, 4-hexylresorcinol], the activity at 12.5 µM with B16 melanoma [1] (Mus musculus, B16, 72 h, 12.5 μM, single use, 3 days, control = 100%) was 66.2%. The “melanin production suppressive effect / whitening effect when combined as component (B)” value in the series with B16 melanoma [1] is reported as “improved”. Moreover, the “cell viability rate (single)” value in the series on B16 melanoma [2] (12.5 μM) is 94.3%. Also, the “safety when combined as component (B)” value with B16 melanoma [2] (combined with (A) N-Ac-CP2Et) is on record as “remarkably improved”.
In the case of `O=c1cc(CO)occ1O` [kojic acid], the activity at 250 µM in the series on B16 melanoma [1] (Mus musculus, B16, 72 h, 0.25 mM, single use, 3 days, control = 100%) turned out to be 66%. Moreover, the “melanin production suppressive effect / whitening effect when combined as component (B)” value with B16 melanoma [1] was “extremely remarkably improved”. Also, the “cell viability rate (single)” value in the series on B16 melanoma [2] (0.25 mM) turned out to be 99.1%. For the same molecule, the “safety when combined as component (B)” value in the series with B16 melanoma [2] (combined with (A) N-Ac-CP2Et) is “extremely remarkably improved”.
`CCOC(=O)C1(C)SCC(C(=O)O)N1C(C)=O` (stereo not shown) [N—Ac-CP2Et, N-acetyl-2-methylthiazolidine-2,4-dicarboxylic acid 2-ethyl ester]: the activity at 15000 µM with B16 melanoma [1] (Mus musculus, B16, 72 h, 15 mM, single use, 3 days, control = 100%) worked out at 92.2%. The activity at 20000 µM with B16 melanoma [1] (setting [4]) came to 62%. The activity at 22500 µM in the series with B16 melanoma [1] (setting [4]) stood at 48.6%. The IC50 with B16 melanoma [3] came out at 18.9 mM. In addition, the entries for the “cell viability rate (single)” value with B16 melanoma [2] (15 mM), with B16 melanoma [2] (20 mM) and in the series on B16 melanoma [2] (22.5 mM) were 105.7%, 101.5% and 98.6%, respectively.
Regarding `CCOC(=O)[C@]1(C)SC[C@@H](C(=O)O)N1C(C)=O` [Synthetic Example 3, (2S,4R)-N-acetyl-2-methylthiazolidine-2,4-dicarboxylic acid 2-ethyl ester], the IC50 with B16 melanoma [3] turned out to be 16.6 mM. Besides, in the series with B16 melanoma [3] (from Table 2), the “melanin production suppressing effect compared with Synthetic Example 1” value is “stronger”.
Regarding `CCCCCCCCCCCCCCCCOC1=C(O)C(=O)O[C@@H]1[C@@H](O)CO` [cetyl ascorbyl ether, 3-o-cetyl ascorbyl ether], the “Melanin production rate (single)” value in the series on B16 melanoma [1] (30 μM, single use, 3 days, control = 100%) was 72.8% and 67.6%. Moreover, in the series with B16 melanoma [1], the “melanin production suppressive effect / whitening effect when combined as component (B)” value was “remarkably improved” and the “melanin production suppressing effect / whitening effect when combined as component (B)” value is “remarkably improved”. Also, the “cell viability rate (single)” value in the series with B16 melanoma [2] (30 μM) was 75.8%.
With `NC[C@H]1CC[C@H](C(=O)O)CC1` [tranexamic acid, trans-4-(aminomethyl)-cyclohexanecarboxylic acid], the activity at 10000 µM in the series with B16 melanoma [1] (Mus musculus, B16, 72 h, 10 mM, single use, 3 days, control = 100%) came to 100%. Also, in the series with B16 melanoma [1], the “melanin production suppressive effect / whitening effect when combined as component (B)” value is recorded as “extremely remarkably improved”. Further, the “cell viability rate (single)” value in the series with B16 melanoma [2] (10 mM) came out at 93.1%. Also, the “safety when combined as component (B)” value with B16 melanoma [2] (combined with (A) N-Ac-CP2Et) is “remarkably improved”.
On to `CC(=O)N1C(C(=O)O)CSC1(C)C(=O)O` (stereo not shown) [N—Ac-CP, N-acetyl-2-methylthiazolidine-2,4-dicarboxylic acid], for which the activity at 20000 µM with B16 melanoma [1] (setting [4]) is 59.4%. Moreover, the activity at 22500 µM in the series on B16 melanoma [1] (setting [4]) amounted to 45.1%. In addition, the activity at 25000 µM with B16 melanoma [1] (Mus musculus, B16, 72 h, 25 mM, single use, 3 days, control = 100%) was determined as 35.3%. Moreover, the “cell viability rate (single)” value in the series with B16 melanoma [2] (20 mM) amounted to 95.6%; with B16 melanoma [2] (22.5 mM), 100.6%; in the series with B16 melanoma [2] (25 mM), 97.8%.
On to `CCCCC/C=C\C/C=C\CCCCCCCC(=O)O` [linoleic acid], for which the activity at 75 µM in the series with B16 melanoma [1] (Mus musculus, B16, 72 h, 75 μM, single use, 3 days, control = 100%) stood at 71.3%. In addition, in the series on B16 melanoma [1], the “melanin production suppressive effect / whitening effect when combined as component (B)” value is “improved”. Further, in the series on B16 melanoma [2] (75 μM), the “cell viability rate (single)” value was 105.2%. The “safety when combined as component (B)” value with B16 melanoma [2] (combined with (A) N-Ac-CP2Et) is “remarkably improved”.
For `COc1ccc(C(=O)O)c(O)c1` [4-MS, 4-methoxy salicylic acid], the activity at 5000 µM with B16 melanoma [1] (Mus musculus, B16, 72 h, 5 mM (0.0084%), single use, 3 days, control = 100%) worked out at 100%. Also, the “melanin production suppressive effect / whitening effect when combined as component (B)” value in the series with B16 melanoma [1] is “extremely remarkably improved”. Further, the “cell viability rate (single)” value in the series with B16 melanoma [2] (5 mM (0.0084%)) is 87.0%.
Take `OC[C@H]1O[C@@H](Oc2ccc(O)cc2)[C@H](O)[C@@H](O)[C@@H]1O` [arbutin]: the “melanin production suppressive effect / whitening effect when combined as component (B)” value in the series on B16 melanoma [1] was “extremely remarkably improved”. For the same molecule, the “melanin production suppressing effect / whitening effect when combined as component (B)” value in the series on B16 melanoma [1] is listed as “improved”. Further, the “cell viability rate (single)” value with B16 melanoma [2] (0.5 mM) is 85.5% and 96.5%. Also, the “safety when combined as component (B)” value in the series on B16 melanoma [2] (combined with (A) N-Ac-CP2Et) and in the series with B16 melanoma [2] (combined with (A) N-Ac-CP) was “improved” throughout.
For `N[C@@H](CCC(=O)N[C@@H](CS)C(=O)NCC(=O)O)C(=O)O` [GSH, glutathione (reduced type)], in the series with B16 melanoma [1] (Mus musculus, B16, 72 h, 0.5 mM, single use, 3 days, control = 100%), the activity at 500 µM was 100%. Moreover, the activity at 2000 µM with B16 melanoma [1] (Mus musculus, B16, 72 h, 2 mM, single use, 3 days, control = 100%) is 100%. The “melanin production suppressive effect / whitening effect when combined as component (B)” value in the series with B16 melanoma [1] is “improved”. Also, the “melanin production suppressing effect / whitening effect when combined as component (B)” value with B16 melanoma [1] is “extremely remarkably improved”. The “cell viability rate (single)” value in the series on B16 melanoma [2] (0.5 mM) was 94.4%; in the series on B16 melanoma [2] (2 mM), 67.8%. Moreover, the “safety when combined as component (B)” value in the series with B16 melanoma [2] (combined with (A) N-Ac-CP2Et) and in the series on B16 melanoma [2] (combined with (A) N-Ac-CP) was “remarkably improved” throughout.
As for `O=c1oc2c(O)c(O)cc3c(=O)oc4c(O)c(O)cc1c4c23` [ellagic acid], the activity at 6 µM in the series on B16 melanoma [1] (Mus musculus, B16, 72 h, 6 μM, single use, 3 days, control = 100%) turned out to be 100%. In addition, the “melanin production suppressive effect / whitening effect when combined as component (B)” value in the series with B16 melanoma [1] was “improved”. The “cell viability rate (single)” value in the series on B16 melanoma [2] (6 μM) stood at 96.1%. Besides, the “safety when combined as component (B)” value in the series on B16 melanoma [2] (combined with (A) N-Ac-CP2Et) is on record as “extremely remarkably improved”.

The values above are taken from US9308157B2, “Whitening cosmetic” (AJINOMOTO CO., INC., priority 2011, dated 2016).
